Patent publication US4604401A, “Antibacterial agents III” (Warner-Lambert Company, priority 1984, dated 1986)
Values after ≈ are worked out from the molar mass of the structure shown. Where two headings read alike, the source gives them in different places.

Assays:
Experiment in all cases: In vitro antibacterial activity, microtitration dilution method (MIC)
Assay type in all cases: cell-based
[1] = test system: Staphylococcus aureus H 228
Text: (§1) Agents & Chemoth., 6, 124 (1974), which is incorporated herein by reference.

[2] = test system: Streptococcus faecalis MGH-2; details: Enterococcus faecalis
Text: as §1

[3] = test system: Staphylococcus aureus UC-76
Text: as §1

Proteus rettgeri M 1771 = details: Providencia rettgeri, M1771, read-out: Minimal Inhibitory Concentration (MIC)
Text: (§2) The compounds of the invention display antibacterial activity when tested by the microtitration dilution method as described in Heifetz, et al, Antimicr. Agents & Chemoth., 6, 124 (1974), which is incorporated herein by reference.
(§3) By use of the above referenced method, the followed minimum inhibitory concentration values (MICs in μg/ml) were obtained for representative compounds of the invention.

[4] = test system: Pseudomonas aeruginosa UI-18; details: UI18, read-out: Minimal Inhibitory Concentration (MIC)
Text: as §2, §3

[5] = test system: Streptococcus pyogenes C-203; details: C203, read-out: Minimal Inhibitory Concentration (MIC)
Text: as §2, §3

[6] = test system: Enterobacter cloacae MA 2646; details: MA2646, read-out: Minimal Inhibitory Concentration (MIC)
Text: as §2, §3

Escherichia coli Vogel = details: read-out: Minimal Inhibitory Concentration (MIC)
Text: as §2, §3

[7] = test system: Streptococcus pneumoniae SV-1; details: SV1, read-out: Minimal Inhibitory Concentration (MIC)
Text: as §2, §3

[8] = test system: Klebsiella pneumoniae MGH-2; details: MGH2, read-out: Minimal Inhibitory Concentration (MIC)
Text: as §2, §3

[9] = H228, Staphylococcus aureus H 228, read-out: Minimal Inhibitory Concentration (MIC)
[10] = MGH2, Streptococcus faecalis MGH-2, read-out: Minimal Inhibitory Concentration (MIC)
[11] = Staphylococcus aureus, UC76, read-out: Minimal Inhibitory Concentration (MIC)

Row | SMILES | MIC [1, 9] [µg/mL] | MIC [2, 10] [µg/mL] | MIC [3, 11] [µg/mL] | MIC (Proteus rettgeri M 1771) [µg/mL] | MIC [4] [µg/mL] | MIC [5] [µg/mL] | MIC [6] [µg/mL] | MIC (Escherichia coli Vogel) [µg/mL] | MIC [7] [µg/mL] | MIC [8] [µg/mL] | MIC ([1]; Staphylococcus aureus, H228, read-out: Minimal Inhibitory Concentration (MIC)) [µg/mL] | MIC ([3]; UC76, Staphylococcus aureus UC-76, read-out: Minimal Inhibitory Concentration (MIC)) [µg/mL] | MIC ([2]; MGH2, read-out: Minimal Inhibitory Concentration (MIC)) [µg/mL]
1 | CCNCC1CCN(c2cc3c(cc2F)c(=O)c(C(=O)O)cn3NC)C1 (stereo not shown) [Ex. 1, 7-[3-[(Ethylamino)methyl]-1-pyrrolidinyl]-6-fluoro-1-methylamino-1,4-dihydro-4-oxo-3-quinolinecarboxylic Acid] | 12.5 (≈ 34.5 µM) | 6.3 (≈ 17.4 µM) | 0.2 (≈ 0.552 µM) | 25 (≈ 69 µM) | 25 (≈ 69 µM) | 0.4 (≈ 1.1 µM) | 6.3 (≈ 17.4 µM) | 12.5 (≈ 34.5 µM) | 3.1 (≈ 8.55 µM) | 6.3 (≈ 17.4 µM) |  |  | 
2 | CNn1cc(C(=O)O)c(=O)c2cc(F)c(N3CCC(N)C3)c(F)c21 (stereo not shown) [Ex. 2, 7-(3-Amino-1-pyrrolidinyl)-6,8-difluoro-1,4-dihydro-1-methylamino-4-oxo-3-quinolinecarboxylic Acid] |  | 12.5 (≈ 36.9 µM) |  | 0.4 (≈ 1.18 µM) | 0.2 (≈ 0.591 µM) | 0.8 (≈ 2.36 µM) | 0.8 (≈ 2.36 µM) | 0.2 (≈ 0.591 µM) | 6.3 (≈ 18.6 µM) | 0.2 (≈ 0.591 µM) | 3.1 (≈ 9.16 µM) | 0.4 (≈ 1.18 µM) | 
3 | CCNCC1CCN(c2c(F)cc3c(=O)c(C(=O)O)cn(NC)c3c2F)C1 (stereo not shown) [Ex. 3, 7-[3-[(Ethylamino)methyl]-1-pyrrolidinyl]-6,8-difluoro-1,4-dihydro-1-methylamino-4-oxo-3-quinolinecarboxylic acid] | 0.4 (≈ 1.05 µM) | 0.4 (≈ 1.05 µM) | 0.2 (≈ 0.526 µM) | 1.6 (≈ 4.21 µM) | 0.8 (≈ 2.1 µM) | 0.2 (≈ 0.526 µM) | 0.2 (≈ 0.526 µM) | 0.2 (≈ 0.526 µM) | 0.1 (≈ 0.263 µM) | 0.2 (≈ 0.526 µM) |  |  | 
4 | CNn1cc(C(=O)O)c(=O)c2cc(F)c(N3CCC(CN)C3)c(F)c21 (stereo not shown) [Ex. 4, 7-[3-(Aminomethyl)-1-pyrrolidinyl]-6,8-difluoro-1,4-dihydro-1-methylamino-4-oxo-3-quinolinecarboxylic acid] | 1.6 (≈ 4.54 µM) |  | 0.2 (≈ 0.568 µM) | 1.6 (≈ 4.54 µM) | 1.6 (≈ 4.54 µM) | 0.2 (≈ 0.568 µM) | 1.6 (≈ 4.54 µM) | 1.6 (≈ 4.54 µM) | 0.8 (≈ 2.27 µM) | 1.6 (≈ 4.54 µM) |  |  | 0.8 (≈ 2.27 µM)
